Test results as given in patent publication US12383514B2, “Nano-particles of menaquinone and methods of treatment” (Epizon, Inc., priority 2023, dated 2025).

Assays:
caspase-3 = details: concentration of 10 mcmol/L; cited from earlier work
PC12 cells = details: cited from earlier work
[1] = Dissolution testing of MK-7 nanosuspension in FeSSIF (study 1, 500 mL media); type: physicochemical; details: FeSSIF pH 5, 37 °C, 0.01 mg/mL drug load
Description: MK-7 (menaquinone-7, API) was suspended in an aqueous vehicle containing wetting agent sodium deoxycholat. The API concentration was 4% and the wetting agent concentration was 0.4% w/w. The API particles were milled to a particle size of 155 nm using zirconium milling beads and high shear Beadbeater mixing. The dissolution of the nanosuspension was tested at a concentration of 0.01 mg/mL, in triplicate, in pH 5 Fed State Simulated Intestinal Fluid (FeSSIF).
1. Clean dissolution system with DI water. Prepare FeSSIF: 2. Fill three (3) vessels with 500 mL of FeSSIF media and heat to 37° C. 3. Set up the following dissolution conditions:
4. Vortex suspension x for approximately one minute so that it is uniform. Weigh three (3) aliquots of 0.15 g of the 4% nanosuspension into a tared syringe to give a target 100% dissolution concentration of 0.01 mg/mL. Record weight. 5. Add weighed suspension directly to each vessel. 6. Start at Timer. 7. After five minutes, manually pull up 3 mL from each dissolution vessel in a syringe. 8. Attach a 0.2 μm filter to the syringe. 9. Transfer 2 mL of the dissolution sample back into the vessel. 10. Transfer the final 1 mL of sample to an amber HPLC vial and crimp seal. 11. Repeat Steps #8-11 at 10, 15, 30, 45 and 60 mins. 12. After the 60-minute time-point, mix each vessel for 5 minutes with a high shear mixer. 13. Repeat Step #8-11 and label this sample as ‘infinity’. 14. Run samples on HPLC 10 minutes HPLC method with replicate HPLC standard solutions.

[2] = Dissolution testing of MK-7 nanosuspension in FeSSIF (summary study 2); type: physicochemical; details: FeSSIF pH 5, 37 °C, 0.0104 mg/mL
Description: MK-7 (menaquinone-7, API) was suspended in an aqueous vehicle containing wetting agent, sodium deoxycholate. The API concentration was 4% and the wetting agent concentration was 0.4% w/w. The API particles were milled to a particle size of 156 nm by use of zirconium milling beads and high shear Beadbeater mixing. The dissolution of the nanosuspension was tested at a concentration of 0.01 mg/mL, in triplicate, in pH 5 FeSSIF.
Clean dissolution system with DI water. Fill 3× vessels with 500 mL of FeSSIF media and heat to 37° C. Set up the following dissolution conditions:
Vortex suspension×1 minute so that it is uniform. Weigh 3×0.15 g portions of nanosuspension into a tared syringe to give a target 100% dissolution concentration of 0.01 mg/mL. Record weight. Add weighed suspension directly to each vessel. Start at Timer.
At 5 mins, manually pull up 3 mL from each vessel in a syringe. Attach a 0.2 μm filter to the syringe. Transfer 2 mL of the aliquot back into the vessel. Transfer the final 1 mL of aliquot to an HPLC vial and crimp seal. Repeat Steps #8-11 at 10, 15, 30, 45 and 60 mins. After the 60-minute time-point, mix each vessel for 5 minutes with a high shear mixer. Repeat Step #8-11 and label this sample as ‘infinity’.
Run samples on HPLC 10-minute HPLC method with replicate HPLC STDs.

[3] = Infinity (after 5 min high shear mixing)

Compound | decrease of caspase-3 activity (caspase-3) [fold] | neuronal death resulting from Aβ(1-42) (PC12 cells; PC12 cells) | apoptosis after exposure to H2O2 or Aβ(1-42) (PC12 cells; cells pretreated with vitamin K2) | % Dissolution (Avg of n = 3) [1, 3] [%] | % Dissolution (Avg of n = 3) ([1]; timepoint 0 min) [%] | % Dissolution (Avg of n = 3) ([1]; timepoint 10 min) [%] | % Dissolution (Avg of n = 3) ([1]; timepoint 15 min) [%] | % Dissolution (Avg of n = 3) ([1]; timepoint 30 min) [%] | % Dissolution (Avg of n = 3) ([1]; timepoint 45 min) [%] | % Dissolution (Avg of n = 3) ([1]; timepoint 60 min) [%] | % Dissolution (Avg of n = 3) [2, 3] [%] | % Dissolution (Avg of n = 3) ([2]; timepoint 0 min) [%] | % Dissolution (Avg of n = 3) ([2]; timepoint 5 min) [%] | % Dissolution (Avg of n = 3) ([2]; timepoint 10 min) [%] | % Dissolution (Avg of n = 3) ([2]; timepoint 15 min) [%] | % Dissolution (Avg of n = 3) ([2]; timepoint 30 min) [%] | % Dissolution (Avg of n = 3) ([2]; timepoint 45 min) [%] | % Dissolution (Avg of n = 3) ([2]; timepoint 60 min) [%]
vitamin K2 | 2.5 | prevented neuronal death | significantly less apoptosis | – | – | – | – | – | – | – | – | – | – | – | – | – | – | –
CC(C)=CCC/C(C)=C/CC/C(C)=C/CC/C(C)=C/CC/C(C)=C/CC/C(C)=C/CC/C(C)=C/CC1=C(C)C(=O)c2ccccc2C1=O [API, menaquinone-7] | – | – | – | 97.0 | 0 | 96.7 | 97.3 | 97.8 | 97.7 | 95.7 | 10.1 | 0.0 | 4.1 | 9.1 | 8.3 | 16.6 | 7.9 | 5.3
